Reference: patent US20120213860A1, “XENON-BASED INHALABLE DRUG FOR TREATING OR PREVENTING INDUCED DYSKINESIA” (L'Air Liquide Societe Anonyme Pour L'Etude Et …, priority 2009, published 2012)

Test system: dyskinesias induced by levodopa
Test: levodopa-induced abnormal involuntary movements (AIMs) in rats with unilateral 6-OHDA lesions (animal model of Parkinson's disease)
Type: in vivo, Sprague-Dawley rats
Protocol: More precisely, the effects of administering several gases as treatment of dyskinesias were evaluated in rats having lesions produced by unilateral injection of 6-OHDA (6-hydroxydopamine, a powerful neurotoxic) in an ascending nigrostriatal pathway (animal model of Parkinson's disease). In this model, long-term treatment of rats with levodopa induces abnormal involuntary movements (AIMs) that are similar to those in dyskinesias induced by levodopa in humans. The rats with lesions induced by 6-OHDA serving as the model of Parkinson's disease are prepared as follows. 16 Sprague-Dawley rats weighing between 250 and 300 g are kept in a room with controlled temperature (about 22° C.) with day/night cycles of 12 h, with free access to food and water. The animals receive, 30 min before the intervention, an intraperitoneal injection of pargyline (5 mg/kg; inhibitor of monoamine oxidase-B) and of desipramine (25 mg/kg; norepinephrine reuptake inhibitor). The animals are put in an anesthesia chamber with continuous flow of oxygen at 1.5 l/minute and 3% isoflurane. After anesthesia, the animals are placed in a stereotaxic frame. […] The injection site is localized according to the coordinates relative to bregma: −2.8 mm rostral, 2 mm lateral and 9 mm under the cranium (Paxinos and Watson, 1986). The rats are left to recover for 3 weeks after the lesions. The animals receive 0.05 mg/kg s.c. of apomorphine. […] The animals that remain receive an administration of 6 mg/kg of levodopa and 15 mg/kg of benzerazide (i.p.), twice a day, for 21 consecutive days. During these 21 days, the abnormal involuntary movements (AIMs) are assessed on days 1, 7, 14 and 21. The therapeutic treatments begin on day 22. They consist of administering the following to the rats by inhalation: • xenon/O2 gas mixtures (50%/50% by volume) as test gas according to the invention and; • N2/O2 gas mixtures (50%/50% by volume) as control. The gas mixtures are premixtures supplied by Air Liquide™. The gas concentrations are monitored continuously. Exposure to the gases is effected in a Plexiglas chamber with a length of 42 cm, and width and height of 26 cm. Each time, 4 or 5 rats are put in the chamber and inhale the test gas for 1 h. The chamber is supplied with fresh gas at a flow rate of 4 l/min. The abnormal involuntary movements (AIMs) are assessed for 180 min after injection of levodopa. More precisely, the animals are put in boxes (22 cm×34 cm×20 cm) and are left there for 15 minutes for them to become accustomed to their environment. Levodopa methyl ester (6 mg/kg, i.p.) is then administered at time intervals of 1 minute between rats. Each rat is observed for 1 minute at intervals of 30 minutes after injection and for a period of 180 min. Four subtypes of AIMs are assessed, namely: • Locomotor (Lo): increased movements contralateral to the lesion, • Hind limbs (Li): uncontrolled random movements of the hind limbs contralateral to the lesion, • Orolingual (Ol): excessive mastication and jaw movements with tongue protrusion, • Axial (Ax): dystonic postures or choreiform twisting of the neck and of the upper body contralaterally. The severity of the MIAs is scored from 1 to 4 according to the duration of the MIAs over an observation period of one minute: • 0.1=presence of MIAs for less than 30 s • 0.2=presence of MIAs for more than 30 s • 0.3=presence of MIAs during the minute with interruption by external stimuli • 0.4=presence of MIAs during the minute without interruption by external stimuli

[1] = parkinsonian rat, xenon/O2 50%/50% by volume inhaled 1 h, vs control N2/O2 50%/50%, amplitude and duration
[2] = parkinsonian rat, xenon/O2 50%/50% inhaled, vs control N2/O2

## [Xe] [xenon]
Animals breathing xenon/O2 (50%/50% by volume), amplitude and duration
  appearance of the 4 types of dyskinesias (Lo, Li, Ol, Ax): greatly reduced
[1]
  axial dyskinesias (Ax), kinetics following administration of L-Dopa (FIG. 3A): clear decrease
  hind limb dyskinesias (Li), kinetics following administration of L-Dopa (FIG. 4A): significant decrease
  locomotor dyskinesias (Lo), kinetics following administration of L-Dopa (FIG. 6A): large decrease
  orolingual dyskinesias (Ol), kinetics following administration of L-Dopa (FIG. 5A): clear decrease
[2]
  mean value of hind limb dyskinesias (Li) from 60 to 180 min (FIG. 4B): fewer hind limb dyskinesias
  mean value of locomotor dyskinesias from 60 to 180 min (FIG. 6B): fewer locomotor dyskinesias
  mean value of orolingual dyskinesias (Ol) from 60 to 180 min (FIG. 5B): fewer orolingual dyskinesias
  mean value of the axial dyskinesias from 60 to 180 min (FIG. 3B): fewer axial dyskinesias
